{
  "source": "patent US8722652B2",
  "about": "“Acute treatment of social phobia” (Pherin Pharmaceuticals, Inc., priority 2005, dated 2014)",
  "assay_type_in_all_cases": "in vivo, human",
  "key": {"[1]": {"tested_on": "patients diagnosed with generalized anxiety disorder", "test": "Acute anxiety symptom scores (HAM-A, COVI, CGI) after delivery to the vomeronasal organ of patients with generalized anxiety disorder"}, "[2]": {"tested_on": "patients diagnosed with generalized social phobia", "test": "Phase-2 randomized double-blind study: public speaking and social interaction challenges in social phobia patients, intranasal spray", "text": "A Phase-2 Randomized, Double-blind, Crossover Study of the Use of Single Doses of [3β]-Androsta-4,16-dien-3-ol for Management of the Symptoms of Social phobia\nThe following describes a study of the effects of the vomeropherin [3β]-androsta-4,16-dien-3-ol on human female patients suffering from social phobia.\nThe study comprised 40 patients with clinical diagnosis of Social Phobia. Each patient was randomly assigned to one of the following double-blind treatment groups: 800 nanogram [3β]-Androsta-4,16-dien-3-ol or placebo delivered intranasally in spray form. Each patient participated in the Treatment Phase as follows.\nFirst Visit: the patient visited the study center and the following activities were conducted during this visit: Pre-Challenge: After arrival at the study center, the patient completed self-reports of their usual anxiety symptoms. Public Speaking Challenge: The patient was administered a spray (50 microliters) of placebo to each nostril, and the procedures for the Public Speaking Challenge were then explained to the patient. The patient was given four minutes to prepare one of several topics for a four-minute speech, without notes, in front of an audience of several people who evaluated the speech and videotaped it. Immediately after completing the preparation period, the patient completed self-reports of their anticipatory anxiety and the Investigator then rated the patient's anticipatory anxiety. The patient gave their speech. Immediately after completing the speech, the patient completed self-reports of anxiety experienced during the speech. The Investigator then rated the anxiety experienced by the patient. Social Interaction Challenge: Approximately one hour after completion of the Public Speaking Challenge, the patient was administered another dose of placebo in each nostril, and the procedures for a Social Interaction Challenge appropriate for one of the patient's most-feared social interaction situations were then described to the patient. Then, the patient completed self-reports of their anticipatory anxiety and the Investigator rated the patient's anticipatory anxiety. Then, the patient participated in a four-minute mock social interaction while being observed by several raters and videotaped. Immediately after completing the social interaction, the patient completed self-reports of anxiety experienced during the interaction. Then, the Investigator rated the anxiety experienced by the patient. Those patients that during the first visit responded to placebo during the public speaking or the social interaction challenge were terminated from the study at that time. Patients non-responding to placebo during the first visit participated in a second visit where they were randomly dosed again with placebo, or with 800 nanograms androsta-4,16-dien-3β-ol per nostril (total dose=1,600 nanograms) delivered in spray form. Each patient was challenged and also the anxiety symptoms were scores using the same procedure performed during first visit.\nThe mean score obtained during the first visit (baseline scores) for each, anticipatory public speaking, performance public speaking, anticipatory social interaction and performance social interaction, was subtracted from the mean score (same parameter) obtained during the second visit. The result is a measure of symptom improvement."}, "vomeronasal receptors": {"tested_on": "vomeronasal receptors", "test": "Electrovomerogram dose-response (mass receptor potential of the vomeronasal receptors), local aerosol delivery with Multifunctional Miniprobe", "experimental": "The effective amount of androsta-4,16-dien-3β-ol administered was determined in dose-response studies where the amplitude of the mass receptor potential of the vomeronasal receptors (electrogram of the vomeronasal organ or electrovomerogram) was recorded from volunteers diagnosed with generalized anxiety disorder (GAD), while locally delivering different concentrations of the steroid in aerosol form, using a Multifunctional Miniprobe® described in U.S. Pat. No. 5,303,703. This electrovomerogram allows precise measuring of the concentration dependent effect of locally delivered androsta-4,16-dien-3β-ol to vomeronasal receptors, and calculation of the half-maximal concentration, the Effective Concentration 50 (EC50).\nAndrosta-4,16-dien-3β-ol was delivered directly to the vomeronasal organ pit of anxious patients using the Multifunctional Miniprobe®, consisting of a concentric arrangement of Teflon® tubes having an inner non-polarized silver wire recording-electrode. […] The electrovomerogram recorded with the surface silver-wire electrode was electronically amplified and continuously monitored in a computer and a dose-response curve was obtained by plotting the peak amplitude of electrovomerograms produced by several different amounts of androsta-4,16-dien-3β-ol (ranging from 0 (control) to 1000 picograms). […]"}, "[3]": {"conditions": "1 nanogram to the vomeronasal organ, GAD patients n = 20"}, "[4]": {"conditions": "1600 nanogram intranasally, n = 40, Mean Baseline Score − Mean Score After Treatment"}},
  "data": [
    {"compound": "C[C@@]12C=CC[C@H]1[C@@H]1CCC3=C[C@@H](O)CC[C@]3(C)[C@H]1CC2", "note": "[androsta-4,16-dien-3β-ol]", "values": [
      {"measurement": "Mean acute symptom improvement, CGI (Mean Baseline Score − Mean Score after Treatment)", "setting": "[1]; [3]", "result": 1.17},
      {"measurement": "Mean acute symptom improvement, COVI (Mean Baseline Score − Mean Score after Treatment)", "setting": "[1]; [3]", "result": 2.8},
      {"measurement": "Mean acute symptom improvement, HAM-A (Mean Baseline Score − Mean Score after Treatment)", "setting": "[1]; [3]", "result": 10.6},
      {"measurement": "Acute anxiety symptoms scores (HAM-A, COVI, CGI)", "setting": "[1]; concentrations above the EC50, 20 human female GAD patients, effect lasting 30 minutes after intranasal administration", "result": "significantly reduced"},
      {"measurement": "Anticipatory and Performance anxiety scores", "setting": "[2]; 5 minutes after administration, Social Interaction and Public Speaking", "result": "notably and significantly decreased"},
      {"measurement": "Mean Symptom Improvement, Anticipatory Public Speaking Anxiety", "setting": "[2]; [4]", "result": 10.417},
      {"measurement": "Mean Symptom Improvement, Anticipatory Social Interaction Anxiety", "setting": "[2]; [4]", "result": 12.166},
      {"measurement": "Mean Symptom Improvement, Performance Public Speaking Anxiety", "setting": "[2]; [4]", "result": 26.294},
      {"measurement": "Mean Symptom Improvement, Performance Social Interaction Anxiety", "setting": "[2]; [4]", "result": 14.197},
      {"measurement": "Symptom improvement versus placebo", "setting": "[2]; second visit versus first-visit baseline scores", "result": "much greater and significant symptom improvement than placebo"},
      {"measurement": "EC50 (half-maximal concentration, electrovomerogram peak amplitude)", "setting": "vomeronasal receptors; delivered directly to vomeronasal organ pit, aerosol from propylene glycol, GAD volunteers", "result": 0.5, "unit": "nanograms"},
      {"measurement": "KD", "setting": "vomeronasal receptors; set equal to EC50 (linear receptor occupancy-response, model of A. J. Clark)", "result": 0.5, "unit": "ng"}
    ]}
  ]
}
